Measurements taken from BindingDB's records for patent US20250136570 (Tango Therapeutics, 2025).

Biological target: Histone deacetylase 1 (Homo sapiens, UniProt Q13547)
Experiment: HDAC1 & HDAC3 Inhibition Assay
Experimental: IC50 determination for HDAC1 and HDAC3-Prior to adding reagents, 50 nL/well of compound were added to Proxiplates using an Echo dispenser instrument (Beckman Coulter, CA, US). After addition of compound, 2.5 μL/well of 2× enzyme solution was added and the enzyme was pre-incubated with compound for 3 hours at room temp. (˜22° C.). After the pre-incubation period, the enzyme reaction was initiated by adding 2.5 μL/well of 2× Fluor de Lys substrate solution. The assay reaction was stopped after one hour by adding 5 μl/well of a 0.66× Developer solution containing TSA (3.2 μM). The final product of the enzyme reaction was read using a Spectramax plate reader instrument (Molecular Devices, CA, US) using a fluorescent readout (Ex 360 nm/Em 460 nm). The final enzyme concentrations in the assay buffer for HDAC1 and 3 were 6 and 1.2 nM, respectively. The final Fluor de Lys substrate concentration in the assay buffer was 16 μM for all HDAC enzymes. IC50 values were determined using the following equation:EfreeEo=100(1-11+(1IC50)n)(1)Where Efree and Eo are the free and total amount of HDAC enzyme in the reaction mixture, n is the hill coefficient, I is the free inhibitor concentration, and IC50 is the measure of the potency equivalent to the inhibitor concentration that leads to a 50% occupancy of the total enzyme. Each data was generated in duplicate.

Histone deacetylase 1, sequence (Q13547 whole entry): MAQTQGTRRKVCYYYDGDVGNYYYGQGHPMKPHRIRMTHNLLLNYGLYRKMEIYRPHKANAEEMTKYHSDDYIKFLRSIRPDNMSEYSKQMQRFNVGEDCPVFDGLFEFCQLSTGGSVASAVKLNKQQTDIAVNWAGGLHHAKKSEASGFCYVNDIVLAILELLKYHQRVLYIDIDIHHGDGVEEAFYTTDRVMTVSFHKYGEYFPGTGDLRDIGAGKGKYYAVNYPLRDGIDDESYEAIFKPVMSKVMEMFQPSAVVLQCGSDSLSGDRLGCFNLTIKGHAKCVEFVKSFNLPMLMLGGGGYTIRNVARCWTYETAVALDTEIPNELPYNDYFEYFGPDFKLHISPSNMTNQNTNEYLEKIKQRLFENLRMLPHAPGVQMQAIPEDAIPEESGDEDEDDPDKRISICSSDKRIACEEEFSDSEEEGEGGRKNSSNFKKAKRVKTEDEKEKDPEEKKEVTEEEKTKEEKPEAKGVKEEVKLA

SMILES	IC50
Nc1ccc(-c2cccs2)cc1NC(=O)c1ccc(S2(=O)=NCCC2)cc1 (stereo unspecified) [US20250136570, Compound 126]	< 100 nM
Nc1ccc(-c2ccc(F)cc2)cc1NC(=O)c1ccc(S2(=O)=NCCC2)nc1 (stereo unspecified) [US20250136570, Compound 178]	< 100 nM
Nc1ccc(-c2ccc(F)cc2)cc1NC(=O)c1cc2cc(S3(=O)=NCCC3)ccc2s1 (stereo unspecified) [US20250136570, Compound 204]	< 100 nM
Nc1ccc(-c2ccc(F)s2)cc1NC(=O)c1ccc(S2(=O)=NCCC2)cc1 (stereo unspecified) [US20250136570, Compound 160]	< 100 nM

More lines, now with the values ahead:

IC50	SMILES
< 100 nM	Nc1ccc(-c2ccc(F)cc2)cc1NC(=O)c1ccc(S2(=O)=NCCCC2)cc1 (stereo unspecified) [US20250136570, Compound 243]
< 100 nM	N=S(=O)(c1ccc(C(=O)Nc2cc(-c3ccc(F)cc3)ccc2N)cc1)c1ccc(Cl)cn1 (stereo unspecified) [US20250136570, Compound 213]
